In patent US8530507B2, “Use of levo-ornidazole in the preparation of anti-anaerobic bacteria infection drugs” (priority 2005, dated 2013):
Read-outs that look alike come from different tables or passages of the source.

What was measured:
[1] = Acute toxicology test, LD50 in mice (Bliss method); assay type: in vivo; conditions: both sexes, Kunming, mouse, in vivo, read-out: 95% confidence interval (CI) of LD50
Description: Kunming mice, half males and half females, with body weights of 18˜22 g, were administered the testing drug solution by injection 8 hours after fasting. The death status of animals was consecutively observed for 14 days after administration.

[2] = system: bacteroides (including Escherichia coli) infection; assay: Abdominal infection model in mice, ED50; assay type: in vivo, Kunming white mice; conditions: death observed 7 days; for 95% CI of ED50: oral gavage twice
Description: (§1) Kunming white mice, body weight of 20±2 g, half males and half females. 10 mice in each dose group with half females and half males. Abdominal infection models were prepared with the entire animal (mice) and treatments were conducted with the testing drugs. The therapeutical efficacy was observed and expressed as ED50 (half effective dose). Drugs were administered twice by oral gavage (administered immediately after infection for one and 6 hours after infection for the other one). The death status of animals was observed consecutively for seven days after infection and being treated.

[3] = system: peptostreptococcus (including Escherichia coli); assay: Abdominal infection model in mice, ED50; assay type: in vivo, Kunming white mice; conditions: death observed 7 days; for 95% CI of ED50: oral gavage twice
Description: as §1

mice [4] = assay: Effect on the coordination of balancing in mice; assay type: in vivo; conditions: intravenous injection; for effect on the coordination and balance (number of falling animals): 160 mg/kg; for effect on the coordination and balance, compared with the vehicle control group: doses of 40 and 80 mg/kg
Description: Experiments were conducted in 9 administration groups, L-, D- and racemic ornidazole were administered to them at doses of 40, 80 and 160 mg/kg. Positive control group received chlorpromazine at a dose of 3 mg/kg.

mice [5] = conditions: mouse, in vivo, 40 mg/kg
Description: The same volume of 0.9% sodium chloride injection containing propylene glycol was administered in the vehicle control group. 30 minute after drug administration, 40 mg/kg of sodium thiopental was administered to mice by intraperitoneal injection. The time for the loss of righting reflex and the time for the recovery were recorded. The injection volume was 0.2 ml/10 g, the administration rate was 0.2 ml/10 sec.

Kunming mice = assay: Acute toxicology test, LD50 in mice (Bliss method); assay type: in vivo; conditions: oral gavage; for Number of dead animals: 10 animals; for Probability units (Y): 1600 mg/kg
[6] = oral gavage twice (immediately and 6 hours after infection)

Row | SMILES | LD50 at 14 days ([1]; intravenous injection) [mg/kg] | LD50 at 14 days ([1]; ip, intraperitoneal injection) [mg/kg] | LD50 at 14 days ([1]; oral gavage) [mg/kg] | ED50 ([2]; Bacteroides, oral gavage twice (immediately and 6 hours after infection), read-out: ED50 (half effective dose)) [mg/kg] | 95% CI of ED50 [2] | ED50 ([3]; Peptostreptococcus, oral gavage twice (immediately and 6 hours after infection), read-out: ED50 (half effective dose)) [mg/kg] | 95% CI of ED50 [3] | effect on the coordination and balance (number of falling animals) (mice [4]) | effect on the coordination and balance, compared with the vehicle control group (mice [4]) | duration of sleeping induced by sodium thiopental, compared with the vehicle control group (mice [5]) | Number of dead animals (Kunming mice; 655.4 mg/kg) | Number of dead animals (Kunming mice; 819.2 mg/kg) | Number of dead animals (Kunming mice; 1024 mg/kg) | Death rate (Kunming mice; 1280 mg/kg) [%] | Number of dead animals (Kunming mice; 1280 mg/kg) | Probability units (Y) (Kunming mice) | ED50 (half effective dose) [2, 6] [mg/kg] | ED50 (half effective dose) [3, 6] [mg/kg]
1 | Cc1ncc([N+](=O)[O-])n1CC(O)CCl (racemic) [racemic ornidazole, ornidazole] | 272 to 346 | 1030 to 1210 | 674 to 878 | 39.9 | 51.9˜30.7 mg/kg | 49.1 | 61.1˜39.4 mg/kg | significant effect | no significant effect | significantly extended | 0 | 2 | 7 | 90 | 9 | 7.19 |  | 
2 | Cc1ncc([N+](=O)[O-])n1C[C@H](O)CCl [L-ornidazole, 1-(3-chloro-2-S-(−)-hydroxypropyl)-2-methyl-5-nitroimidazole] |  |  |  |  | 43.3˜22.2 mg/kg |  | 50.9˜34.6 mg/kg | no significant effect | no significant effect |  | 0 | 1 | 4 | 80 | 8 | 6.96 | 31.0 | 42.0
